From patent US20190127705A1, “METHOD FOR CULTURING MULTIPLE OVARIAN FOLLICLES BY USING ANGIOTENSIN II RECEPTOR AGONIST” (SEOUL NATIONAL UNIVERSITY R&DB FOUNDATION, priority 2016, published 2019)
“Also recorded” adds a separate entry of the source.

Assays:
Type in all cases: cell-based, mouse
[1] = system: single pre-antral follicle; test: in vitro culturing of a single pre-antral follicle (growth, ovulation and maturation after ovulation induction); conditions: for ovulation rate / growth of the follicle: single-follicle culturing, 10 ug/mL from day 5; for ovulation rate: 16 to 18 hours after ovulation induction, versus untreated single-follicle, FIG. 2; for growth of the follicle: fifth day compared with 13th day, versus untreated control (CTL), FIG. 1
From the text: (§1) Specifically, an ovary was separated from a 14-day old mouse and placed in HBSS (Hank's balanced salt solution) containing 10% bovine serum. Then, pre-antral follicles in an early developmental stage were mechanically separated using a 28-gauge syringe needle. At this time, degenerated pre-antral follicles were removed, and healthy pre-antral follicles were used for a pre-antral follicle culturing. One separated pre-antral follicle was used for a single-follicle culturing, and a cluster including two to four pre-antral follicles joined together was used for culturing a cluster of multiple follicles.
(§2) After 25 20 μl culture liquid droplets were made on each culture dish (Falcon 3000, BD Biosciences, 60×15 mm), the collected single pre-antral follicle, or the cluster of multiple follicles consisting of 2 to 4 joined pre-antral follicles were seeded to each droplet. Then, those follicles were cultured in a 5% CO2 incubator at 37° C. for about 2 weeks. The culture liquid used here is Opti-MEM medium (Invitrogen) including insulin, 5% bovine serum, recombinant follicle stimulating hormone (FSH, Gonal-F®, Merck Serono, 0.2 IU/mL) and recombinant luteinizing hormone (LH, Luveris®, Merck Serono, 0.1 IU/mL). The culture liquid was changed in half with new medium every two days. In culturing process, a follicle morphology was observed using an inverted microscope (TE-2000; Nikon).
(§3) In order to observe a follicle culturing effect based on a regulation of the angiotensin II receptor, the single pre-antral follicle and the cluster of multiple follicles were compared and analyzed by divided into 3 groups: control group, angiotensin II receptor agonist (CGP-42112, Sigma)-treated group, and angiotensin II receptor antagonist (Saralasin, Sigma)-treated group. Specifically, the single pre-antral follicle and the cluster of multiple follicles were treated with the angiotensin II receptor agonist or the angiotensin II receptor antagonist to have a concentration of 10 ug/mL from day 5 of culturing.
(§4) On the 12th day of the culturing, it was observed that the pre-antral follicle was matured into an antral follicle. Then, the antral follicle was treated with recombinant human […], rhCG, Ovidrel®, Merck Serono) of 1.5 IU/m and human epidermal growth factor (hEGF) of 5 ng/mL in order to induce ovulation. At 16 to 18 hours after the ovulation induction, ovulation rate and maturation rate were calculated.
(§5) Specifically, the ovulation rate was calculated by counting the number of follicles ovulated after administration of the human […] and the human epidermal growth factor among the seeded follicles, and the maturation rate was calculated by counting the number of ova in MII phase among the ovulated ova.
In order to investigate effect of angiotensin II in culturing a single-follicle, growth and maturation rates based on the treatment with angiotensin II receptor agonist or angiotensin II receptor antagonist were intended to be investigated. […] Further, ovulation rates were investigated by inducing ovulation in the cultured follicles.

[2] = system: cluster of multiple follicles; test: in vitro culturing of a cluster of multiple follicles (growth, follicle fluid, maturation rate); conditions: for growth of the cluster of multiple follicles: cluster of two to four joined follicles, fifth day compared with 13th day
From the text: as §1, §2, §3, §4
as §5, with “ova. […]” for “ova.”

[3] = system: mature follicle ovulated from cultured follicles; test: in vitro fertilization of ova from cultured follicles and embryo observation
Protocol: In vitro fertilization was performed to evaluate fertilization rates of the ova obtained by the induction of ovulation. Specifically, a mature follicle ovulated in HTF (human tubal fluid) medium in the 5% CO2 incubator at 37° C. was fertilized with a sperm collected from a 8 week old male C57BL6 mouse. When cell division occur or two pronuclei are seen and a second polar body is observed, the ovum is regarded as fertilized.
In order to further confirm the effect of the angiotensin II in culturing the cluster of multiple follicles, maturation rate and fertilization rate were intended to be checked. Mature follicles were ovulated by treating them with the angiotensin II receptor agonist and inducing the ovulation via the method of Example 1 to Example 5. Then, the ovulated mature follicles were fertilized with sperms.

[4] = system: multiple follicles cultured collectively; test: culturing multiple follicles collectively (growth, follicle fluid); conditions: multiple follicles collectively treated with agonist; bottom of FIG. 8
From the text: as §1, with “follicles. […]” for “follicles.”
In order to observe a follicle culturing effect based on a regulation of the angiotensin II receptor, the single pre-antral follicle and the cluster of multiple follicles were compared and analyzed by divided into 3 groups: control group, angiotensin II receptor agonist (CGP-42112, Sigma)-treated group, and angiotensin II receptor antagonist (Saralasin, Sigma)-treated group. […]
On the 12th day of the culturing, it was observed that the pre-antral follicle was matured into an antral follicle. […] At 16 to 18 hours after the ovulation induction, ovulation rate and maturation rate were calculated. […]

[5] = 10 ug/mL from day 5, FIG. 3, FIG. 8 top

Compound	maturation rate ([1]; single-follicle culturing with agonist treatment, ova in MII phase among ovulated ova, FIG. 5)	ovulation rate [1]	growth of the follicle [1]	accumulation of the follicle fluid in the follicle ([2]; cluster of multiple follicles, 10 ug/mL from day 5, FIG. 3, FIG. 8 top)	growth of the cluster of multiple follicles [2, 5]	maturation rate ([2]; culturing of the cluster of multiple follicles with agonist treatment, ova in MII phase among ovulated ova, FIG. 5)	cleavage of an embryo ([3]; after fertilizing matured follicles from agonist-treated cultures, FIG. 7)	fertilization rates ([3]; single-follicle culturing compared with culturing of the cluster of multiple follicles, agonist treated, FIG. 6)	follicle fluid accumulation in the follicles [4]	growth of the follicles [4]
CGP-42112 [angiotensin II receptor agonist]	11%	not significantly different	growing at a level similar to a single-follicle (control group, CTL) that had not been treated	increased; also recorded: clearly observed in the all follicles	growth of all follicles was significantly promoted; also recorded: significantly promoted to grow	26.8%	progression of cleavage of an embryo was observed	no significant difference	almost no follicle fluid accumulation	all follicles promoted to grow but fell into apoptosis during development
CNCC(=O)N[C@@H](CCCN=C(N)N)C(=O)N[C@H](C(=O)N[C@@H](Cc1ccc(O)cc1)C(=O)N[C@H](C(=O)N[C@@H](Cc1cnc[nH]1)C(=O)N1CCC[C@H]1C(=O)N[C@@H](C)C(=O)O)C(C)C)C(C)C [angiotensin II receptor antagonist, Saralasin]		not significantly different	growing at a level similar to a single-follicle (control group, CTL) that had not been treated		did not grow simultaneously but fell into apoptosis during development					
